# Source: patent US10494376B2, “Tetrahydroisoquinoline derived PRMT5-inhibitors” (CTXT PTY LTD, priority 2014, dated 2019)
# Counter-ions that a name gives are not always drawn.
# Molecular target: Full-length PRMT5 enzyme (NCBI Reference sequence NP_006100.2) co-expressed with His6-MEP50 (Homo sapiens (Human), UniProt O14744)
# Assay: Revised PRMT5 Biochemical Assay
# Details: 1 μM peptide substrate, 1 μM S-Adenosyl methionine, 4 hours at 37 degree Celsius, Transcreener EPIGEN fluorescence polarisation
# Method: Compounds of the invention may be tested for in vitro activity in the following assay: A histone H4 derived peptide is used as substrate (amino acid sequence: […]N H2). Full-length PRMT5 enzyme (NCBI Reference sequence NP_006100.2) was co-expressed with His6-MEP50 in insect cells and purified via Nickel immobilized metal affinity and gel filtration chromatography (“the enzyme”).
# The 6 μL reactions are run in Greiner brand black 384-well low volume assay plates. All reactions contained assay buffer (phosphate buffered saline, 0.01% (v/v) Tween-20, 0.01% (w/v) albumin from chicken egg white, 1 mM Dithiothreitol, 1 μM peptide substrate, 1 μM S-Adenosyl methionine, and 15 ng/reaction enzyme, with the enzyme being omitted from negative control reactions. Compounds were added in a volume of 100 nL from dilution series prepared in DMSO, positive and negative control reactions receiving the same volume DMSO without compound. The plates were sealed with adhesive seals and incubated for 4 hours at 37 degree Celsius. Reaction progress was measured using the Transcreener™ EPIGEN methyltransferase assay (BellBrook Labs, Madison, Wis.) as recommended by the manufacturer. To each reaction 2 μL detection mix were added, containing coupling enzymes, fluorescence polarisation tracer, and AMP antibody. Plates were incubated for 90 minutes before being read on a PerkinElmer EnVision™ plate reader in fluorescence polarisation mode. IC50 values were obtained from the raw readings by calculating percent inhibition (%1) for each reaction relative to controls on the same plate (% I=(I−CN)/(CP−CN) where CN/CP are the averages of the negative/positive reactions, respectively), then fitting the %1 data vs. compound concentration [I] to % I=(A+((B−A)/(1+((C/[I])^D)))) where A is the lower asymptote, B is the upper asymptote, C is the IC50 value, and D is the slope.
# Sequence of Full-length PRMT5 enzyme (NCBI Reference sequence NP_006100.2) co-expressed with His6-MEP50 (O14744 whole entry): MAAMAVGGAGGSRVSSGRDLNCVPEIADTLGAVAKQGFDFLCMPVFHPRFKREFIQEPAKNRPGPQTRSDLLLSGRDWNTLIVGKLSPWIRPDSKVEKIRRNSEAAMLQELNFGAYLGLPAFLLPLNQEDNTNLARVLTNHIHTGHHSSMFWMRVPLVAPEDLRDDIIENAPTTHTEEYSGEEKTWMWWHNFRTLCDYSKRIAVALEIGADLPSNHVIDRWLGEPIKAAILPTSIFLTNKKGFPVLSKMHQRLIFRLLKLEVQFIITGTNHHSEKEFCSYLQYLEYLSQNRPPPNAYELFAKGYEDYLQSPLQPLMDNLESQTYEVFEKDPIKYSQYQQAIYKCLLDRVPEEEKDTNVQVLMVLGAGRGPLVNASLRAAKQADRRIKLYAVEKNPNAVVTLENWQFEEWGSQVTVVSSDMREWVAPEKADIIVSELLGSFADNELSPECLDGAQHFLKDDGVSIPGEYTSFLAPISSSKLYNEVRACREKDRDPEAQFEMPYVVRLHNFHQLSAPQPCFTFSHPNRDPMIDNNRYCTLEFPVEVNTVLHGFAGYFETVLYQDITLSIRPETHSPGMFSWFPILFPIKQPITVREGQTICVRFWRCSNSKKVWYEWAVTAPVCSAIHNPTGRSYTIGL
# Sequence of Full-length PRMT5 enzyme (NCBI Reference sequence NP_006100.2) co-expressed with His6-MEP50 (Q9BQA1 whole entry partner): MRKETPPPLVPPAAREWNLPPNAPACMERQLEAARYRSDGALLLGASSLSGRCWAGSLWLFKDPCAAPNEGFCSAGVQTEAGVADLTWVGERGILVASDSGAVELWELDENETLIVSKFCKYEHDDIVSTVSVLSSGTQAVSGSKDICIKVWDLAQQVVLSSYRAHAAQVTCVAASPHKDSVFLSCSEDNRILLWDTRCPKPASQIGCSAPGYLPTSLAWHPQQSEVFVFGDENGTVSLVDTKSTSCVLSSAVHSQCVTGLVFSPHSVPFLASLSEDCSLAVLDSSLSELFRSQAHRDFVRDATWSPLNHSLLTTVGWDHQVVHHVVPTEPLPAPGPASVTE
row,IC50,Structure (SMILES)
1,780 nM,"O=C(NC[C@@H](O)[C@@H]1Cc2ccccc2CN1)c1ccc(C(=O)N2CC3CC2CO3)cc1 (mixture of isomers) [Example 94, 4-(2-Oxa-5-azabicyclo[2.2.1]heptane-5-carbonyl)-N-((R)-2-hydroxy-2-((S)-1,2,3,4-tetrahydroisoquinolin-3-yl)ethyl)benzamide]"
2,912 nM,"CC(=O)N1CCC(N(C)C(=O)c2ccc(C(=O)NC[C@@H](O)[C@@H]3Cc4ccccc4CN3)cc2)CC1 [Example 19, N^1-(1-Acetylpiperidin-4-yl)-N^4-((R)-2-hydroxy-2-((S)-1,2,3,4-tetrahydroisoquinolin-3-yl)ethyl)-N^1 methylterephthalamide]"
3,2150 nM,"O=C(NC[C@@H](O)[C@@H]1Cc2ccccc2CN1)c1cccc(C(F)F)c1 [Example 22, 3-(Difluoromethyl)-N-((R)-2-hydroxy-2-((S)-1,2,3,4-tetrahydroisoquinolin-3-yl)ethyl)benzamide]"
4,3690 nM,"O=C(NC[C@@H](O)[C@@H]1Cc2ccccc2CN1)c1cccc(C(=O)N2CCOCC2)c1 [Example 24, N-((R)-2-Hydroxy-2-((S)-1,2,3,4-tetrahydroisoquinolin-3-yl)ethyl)-3-(morpholine-4-carbonyl)benzamide]"
5,535 nM,"O=C(NC[C@@H](O)[C@@H]1Cc2ccccc2CN1)c1ccc(C(=O)N2CCOCC2)cn1 [Example 29, N-((R)-2-Hydroxy-2-((S)-1,2,3,4-tetrahydroisoquinolin-3-yl)ethyl)-5-(morpholine-4-carbonyl)picolinamide dihydrochloride salt]"
6,139 nM,"O=C(NC[C@@H](O)[C@@H]1Cc2ccccc2CN1)c1ccc(C(=O)N2CCC(O)(C(F)F)CC2)cc1 [Example 30, 4-(4-(Difluoromethyl)-4-hydroxypiperidine-1-carbonyl)-N-((R)-2-hydroxy-2-((S)-1,2,3,4-tetrahydroisoquinolin-3-yl)ethyl)benzamide]"
7,204 nM,"O=C(NCC1CCOCC1)c1ccc(C(=O)NC[C@@H](O)[C@@H]2Cc3ccccc3CN2)cc1 [Example 31, N^1-((R)-2-Hydroxy-2-((S)-1,2,3,4-tetrahydroisoquinolin-3-yl)ethyl)-N^4-((tetrahydro-2H-pyran-4-yl)methyl)terephthalamide]"
8,511 nM,"O=C(NC[C@@H](O)[C@@H]1Cc2ccccc2CN1)c1ccc(C(=O)N2CCC(CO)CC2)cc1 [Example 32, N-((R)-2-Hydroxy-2-((S)-1,2,3,4-tetrahydroisoquinolin-3-yl)ethyl)-4-(4-(hydroxymethyl)piperidine-1-carbonyl)benzamide]"
9,305 nM,"CCS(=O)(=O)N1CCN(C(=O)c2ccc(C(=O)NC[C@@H](O)[C@@H]3Cc4ccccc4CN3)cc2)CC1 [Example 33, 4-(4-(Ethylsulfonyl)piperazine-1-carbonyl)-N-((R)-2-hydroxy-2-((S)-1,2,3,4-tetrahydroisoquinolin-3-yl)ethyl)benzamide]"
10,1680 nM,"CS(=O)(=O)N1CCC(NC(=O)c2ccc(C(=O)NC[C@@H](O)[C@@H]3Cc4ccccc4CN3)cc2)CC1 [Example 34, N^1-((R)-2-Hydroxy-2-((S)-1,2,3,4-tetrahydroisoquinolin-3-yl)ethyl)-N^4-(1-(methylsulfonyl)piperidin-4-yl)terephthalamide hydrochloride]"
11,152 nM,"CC(=O)N1CCC(NC(=O)c2ccc(C(=O)NC[C@@H](O)[C@@H]3Cc4ccccc4CN3)cc2)CC1 [Example 35, N^1-(1-Acetylpiperidin-4-yl)-N^4-((R)-2-hydroxy-2-((S)-1,2,3,4-tetrahydroisoquinolin-3-yl)ethyl)terephthalamide]"
12,148 nM,"O=C(NC[C@@H](O)[C@@H]1Cc2ccccc2CN1)c1ccc(C(=O)N2C[C@H]3COC[C@H]3C2)cc1 [Example 36, 4-(cis-Hexahydro-1H-furo[3,4-c]pyrrole-5-carbonyl)-N-((R)-2-hydroxy-2-((S)-1,2,3,4-tetrahydroisoquinolin-3-yl)ethyl)benzamide]"
13,846 nM,"CC(C)N(C)C(=O)c1ccc(C(=O)NC[C@@H](O)[C@@H]2Cc3ccccc3CN2)cc1 [Example 39, N^1-((R)-2-Hydroxy-2-((S)-1,2,3,4-tetrahydroisoquinolin-3-yl)ethyl)-N^4-isopropyl-N^4-methylterephthalamide]"
14,705 nM,"O=C(NC[C@@H](O)[C@@H]1Cc2ccccc2CN1)c1ccc(C(=O)N2CCCOCC2)cc1 [Example 40, N-((R)-2-Hydroxy-2-((S)-1,2,3,4-tetrahydroisoquinolin-3-yl)ethyl)-4-(1,4-oxazepane-4-carbonyl)benzamide]"
15,1390 nM,"CN1CCN(C(=O)c2ccc(C(=O)NC[C@@H](O)[C@@H]3Cc4ccccc4CN3)cc2)CC1=O [Example 41, N-((R)-2-Hydroxy-2-((S)-1,2,3,4-tetrahydroisoquinolin-3-yl)ethyl)-4-(4-methyl-3-oxopiperazine-1-carbonyl)benzamide]"

# The next lines start with the compound.
row,Structure (SMILES),IC50
1,"O=C(NC[C@@H](O)[C@@H]1Cc2ccccc2CN1)c1ccccc1Cl [Example 4, 2-Chloro-N-((R)-2-hydroxy-2-((S)-1,2,3,4-tetrahydroisoquinolin-3-yl)ethyl)benzamide]",8790 nM
2,"O=C(NC[C@@H](O)[C@@H]1Cc2ccccc2CN1)c1ccccc1C(F)(F)F [Example 5, N-((R)-2-Hydroxy-2-((S)-1,2,3,4-tetrahydroisoquinolin-3-yl)ethyl)-2-(trifluoromethyl)benzamide]",51100 nM
3,"O=C(NC[C@@H](O)[C@@H]1Cc2ccccc2CN1)c1ccccc1OC(F)(F)F [Example 6, N-((R)-2-Hydroxy-2-((S)-1,2,3,4-tetrahydroisoquinolin-3-yl)ethyl)-2-(trifluoromethoxy)benzamide]",45800 nM
4,"COc1ccccc1C(=O)NC[C@@H](O)[C@@H]1Cc2ccccc2CN1 [Example 7, N-((R)-2-Hydroxy-2-((S)-1,2,3,4-tetrahydroisoquinolin-3-yl)ethyl)-2-methoxybenzamide]",20000 nM
5,"O=C(NC[C@@H](O)[C@@H]1Cc2ccccc2CN1)c1ccccc1F [Example 9, 2-Fluoro-N-((R)-2-hydroxy-2-((S)-1,2,3,4-tetrahydroisoquinolin-3-yl)ethyl)benzamide]",12500 nM
6,"Cc1ccccc1C(=O)NC[C@@H](O)[C@@H]1Cc2ccccc2CN1 [Example 10, N-((R)-2-Hydroxy-2-((S)-1,2,3,4-tetrahydroisoquinolin-3-yl)ethyl)-2-methylbenzamide]",22500 nM
7,"O=C(NC[C@@H](O)[C@@H]1Cc2ccccc2CN1)c1cccc(-c2ccnnc2)c1 [Example 12, N-((R)-2-Hydroxy-2-((S)-1,2,3,4-tetrahydroisoquinolin-3-yl)ethyl)-3-(pyridazin-4-yl)benzamide]",663 nM
8,"O=C(NC[C@@H](O)[C@@H]1Cc2ccccc2CN1)c1ccc(-c2nnc(N3CCOCC3)o2)cc1 [Example 13, N-((R)-2-Hydroxy-2-((S)-1,2,3,4-tetrahydroisoquinolin-3-yl)ethyl)-4-(5-morpholino-1,3,4-oxadiazol-2-yl)benzamide]",551 nM
9,"O=C(NC[C@@H](O)[C@@H]1Cc2ccccc2CN1)c1coc(-c2ccccc2)n1 [Example 14, N-((R)-2-Hydroxy-2-((S)-1,2,3,4-tetrahydroisoquinolin-3-yl)ethyl)-2-phenyloxazole-4-carboxamide]",2330 nM
10,"O=C(NC[C@@H](O)[C@@H]1Cc2ccccc2CN1)c1csc(-c2ccccc2)n1 [Example 16, N-((R)-2-Hydroxy-2-((S)-1,2,3,4-tetrahydroisoquinolin-3-yl)ethyl)-2-phenylthiazole-4-carboxamide]",662 nM
11,"O=C(NC[C@@H](O)[C@@H]1Cc2ccccc2CN1)c1cnn(-c2cccnc2)c1 [Example 17, N-((R)-2-Hydroxy-2-((S)-1,2,3,4-tetrahydroisoquinolin-3-yl)ethyl)-1-(pyridin-3-yl)-1H-pyrazole-4-carboxamide dihydrochloride salt]",1270 nM
12,"O=C(NC[C@@H](O)[C@@H]1Cc2ccccc2CN1)c1cccc(-c2cncnc2)c1 [Example 18, N-((R)-2-Hydroxy-2-((S)-1,2,3,4-tetrahydroisoquinolin-3-yl)ethyl)-3-(pyrimidin-5-yl)benzamide]",2100 nM
13,"O=C(NC[C@@H](O)[C@@H]1Cc2ccccc2CN1)c1ccccc1C(F)F [Example 23, 2-(Difluoromethyl)-N-((R)-2-hydroxy-2-((S)-1,2,3,4-tetrahydroisoquinolin-3-yl)ethyl)benzamide]",5140 nM
14,"Cc1nnc(-c2ccc(C(=O)NC[C@@H](O)[C@@H]3Cc4ccccc4CN3)cc2)o1 [Example 25, N-((R)-2-Hydroxy-2-((S)-1,2,3,4-tetrahydroisoquinolin-3-yl)ethyl)-4-(5-methyl-1,3,4-oxadiazol-2-yl)benzamide]",1700 nM
15,"COC1CC2CCC(C1)N2C(=O)c1ccc(C(=O)NC[C@@H](O)[C@@H]2Cc3ccccc3CN2)cc1 (stereo partly drawn) [Example 38, N-((R)-2-Hydroxy-2-((S)-1,2,3,4-tetrahydroisoquinolin-3-yl)ethyl)-4-(3-methoxy-8-azabicyclo[3.2.1]octane-8-carbonyl)benzamide]",599 nM
